Data reported in article PMC2647841, “Sulfatide Recognition by Colonization Factor Antigen CS6 from Enterotoxigenic Escherichia coli” (PLoS ONE, 2009).

Molecular target: T1, CS6 protein (coli surface antigen 6; CS6 adhesin) (Escherichia coli, UniProt P53510)
T1 construct: gene cssB; CS6 complex (CssA and CssB structural subunits; operon cssA-cssD, recombinant plasmid pJT-CS6), no tag stated; secreted by E. coli TOP10-CS6, ammonium sulfate precipitate of culture supernatant; 125I-labelled; with CS6 fimbrial subunit A
T1 sequence (P53508 19-154): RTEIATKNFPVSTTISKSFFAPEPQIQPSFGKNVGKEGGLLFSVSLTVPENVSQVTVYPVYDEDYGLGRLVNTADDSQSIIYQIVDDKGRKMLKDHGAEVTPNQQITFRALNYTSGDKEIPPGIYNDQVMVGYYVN
T1 sequence (P53510 22-167): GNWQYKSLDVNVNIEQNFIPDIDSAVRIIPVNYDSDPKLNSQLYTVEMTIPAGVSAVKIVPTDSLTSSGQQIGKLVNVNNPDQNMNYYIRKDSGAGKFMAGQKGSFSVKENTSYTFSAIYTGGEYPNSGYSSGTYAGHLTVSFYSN
Assay: microtiter well binding of […]-labelled CS6 to coated glycosphingolipid
Details: amount of glycosphingolipid coated per well, not a concentration; room temperature, 4 h

Substance: Sulfatide [compound 3]
- half-maximal binding: ~ 100 ng
